# Experimental data taken from EP4603105A1, “PHARMACEUTICAL COMPOSITION CONTAINING CYCLIC COMPOUND HAVING SELECTIVE KRAS INHIBITORY EFFECT AGAINST HRAS AND NRAS” (CHUGAI SEIYAKU KABUSHIKI KAISHA, priority 2022, dated 2024).
# *1 amine or outer side, *2 acyl side, *3 side chain or, on linkers, in order; H or OH if unused. Where a SMILES comes first, the peptide text is derived from it. Bridges are numbered along the chain shown (N, C = ends). [ ]: non-standard residue; d: D form. The star is where a group is joined. X6 = CC(C)(C)CCN([C@@H](Cc1ccc(C(F)(F)F)cc1)C(=O)[*:2])[*:1]; hPhe(3-Cl-4-CF3) = N[C@@H](CCc1ccc(C(F)(F)F)c(Cl)c1)C(=O)O; NPrPhe(4-CF3) = CCCN[C@@H](Cc1ccc(C(F)(F)F)cc1)C(=O)O; NEtPhe(4-CF3) = CCN[C@@H](Cc1ccc(C(F)(F)F)cc1)C(=O)O; NMeGly(cPent) = CN[C@H](C(=O)O)C1CCCC1; Pro(4,4-F2) = O=C(O)[C@@H]1CC(F)(F)CN1; NMeD = CN[C@@H](CC(=O)O)C(=O)O; NMeL = CN[C@@H](CC(C)C)C(=O)O; Morpholide = C1CN(*)CCO1; Ac5c = NC1(C(=O)O)CCCC1; Aze = O=C(O)[C@@H]1CCN1; Ac3c = NC1(C(=O)O)CC1; Sar = CNCC(=O)O
# How the values were obtained:
# [1] = target: GDP-bound KRAS wild-type protein (Homo sapiens, UniProt P01116); assay: Binding to KRAS by surface plasmon resonance (SPR), dissociation constant KD
# Experimental: Surface plasmon resonance was used to analyze the binding affinity of compounds for KRAS, NRAS, and HRAS. The apparatus used was Biacore 8K, 8K+, or T200 (GE Healthcare), and the running buffer used was HBS (10 mM HEPES-NaOH, 150 mM NaCl, pH 7.4) containing 1 mM DTT, 10 mM MgCl2, 0.01% Tween 20, 10 µM GDP, and 4% DMSO.
# Biotinylated Avi-tag fusion KRAS, NRAS, and HRAS proteins were expressed in E. coli BL21 (DE3) strains, and after cells were homogenized, they were purified using Streptavidin Mutein Matrix and Superdex 75. After purification, GDP-loaded KRAS, NRAS, and HRAS proteins were immobilized on the surface of Sensor Chip CAP (Cytiva) coated with Biotin CAPture Reagent in an immobilization amount of about 100 to 300 RU. Binding of each compound was evaluated by the Single Cycle Kinetics method, and a running buffer or a compound solution was added to the RAS protein non-immobilized surface and the immobilized surface to obtain a binding response. The flow rate was set to 100 µL/min, and in the compound-adding cycle, compound solutions having different concentrations were intermittently added for 75 seconds each, starting from a low concentration. […] In the blank cycle, a running buffer was intermittently added and not the compound solution. The Biotin CAPture Reagent and RAS proteins were immobilized for each cycle, and at the end of each cycle, the sensor chip was regenerated by the regeneration solution appended to the Biotin CAPture Kit (Cytiva). Measurement was carried out at 30°C.
# The resulting sensorgram was subjected to curve fitting based on a 1:1 binding model on Biacore Insight Evaluation Software or T200 Evaluation Software, and thereby the dissociation constant KD of each compound with respect to KRAS, NRAS, and HRAS was determined. […] Blank indicates a compound from which the KD value with respect to NRAS or HRAS was not obtained.
# [2] = target: GDP-bound NRAS wild-type protein (Homo sapiens, UniProt P01111); assay: Binding to NRAS by surface plasmon resonance (SPR), KD and KD ratio to KRAS
# How it was run: (§1)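 GDP-loaded biotinylated Avi-tag RAS proteins (E. coli-expressed) captured on a Biotin CAPture chip at ~100–300 RU; single-cycle kinetics at 30°C, 100 µL/min, 75 s injections of rising compound concentrations. HBS pH 7.4 running buffer with 1 mM DTT, 10 mM MgCl2, 10 µM GDP, 4% DMSO. KD from 1:1 binding fit.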
# HRAS wild-type protein = HRAS wild-type protein (Homo sapiens, UniProt P01112); assay: Binding to HRAS by surface plasmon resonance (SPR), KD and KD ratio to KRAS
# How it was run: as §1
# [3] = tested on: human lung cancer strain NCI-H441; format: cell-based
# How it was run: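 Readout: […] after the ATP-based reagent. Compound: serial dilutions in dimethyl sulfoxide.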
# [4] = ratio of KD for GDP-bound NRAS wild-type protein to KD for KRAS
# [5] = ratio of KD for HRAS wild-type protein to KD for KRAS
# [6] = Single Cycle Kinetics, 1:1 binding model
# [7] = ratio of KD value for GDP-bound NRAS wild-type protein to KD value for KRAS (SPR)
# [8] = ratio of KD value for HRAS wild-type protein to KD value for KRAS (SPR)
# Sequence of GDP-bound NRAS wild-type protein (P01111 whole entry): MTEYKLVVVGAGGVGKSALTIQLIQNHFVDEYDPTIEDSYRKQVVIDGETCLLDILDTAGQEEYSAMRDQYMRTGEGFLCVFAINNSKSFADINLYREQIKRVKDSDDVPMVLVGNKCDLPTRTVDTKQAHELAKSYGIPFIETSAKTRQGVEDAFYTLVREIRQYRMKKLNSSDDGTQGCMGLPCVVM
# Sequence of GDP-bound KRAS wild-type protein (P01116 1-188 isoform P01116-2): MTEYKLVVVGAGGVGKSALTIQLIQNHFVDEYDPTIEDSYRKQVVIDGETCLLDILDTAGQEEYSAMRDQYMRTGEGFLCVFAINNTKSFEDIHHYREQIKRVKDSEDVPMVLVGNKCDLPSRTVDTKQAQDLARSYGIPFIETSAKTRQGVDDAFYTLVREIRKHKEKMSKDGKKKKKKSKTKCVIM
# Sequence of HRAS wild-type protein (P01112 whole entry): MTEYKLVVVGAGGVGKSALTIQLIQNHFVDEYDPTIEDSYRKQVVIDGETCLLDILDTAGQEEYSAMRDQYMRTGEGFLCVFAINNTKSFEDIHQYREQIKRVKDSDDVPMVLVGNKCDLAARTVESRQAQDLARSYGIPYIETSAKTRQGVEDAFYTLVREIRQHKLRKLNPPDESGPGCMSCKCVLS
SMILES,Kd ([1]; Single Cycle Kinetics) [nM],"NRAS /KRAS [2, 4]",HRAS /KRAS (HRAS wild-type protein; [5]),IC50 [3] [nM],"Kd [1, 6] [nM]","NRAS /KRAS [2, 7]",HRAS /KRAS (HRAS wild-type protein; [8]),NRAS /KRAS ([2]; ratio of the KD value with respect to GDP-bound NRAS wild-type protein to the KD value with respect to KRAS),HRAS /KRAS (HRAS wild-type protein; ratio of the KD value with respect to HRAS wild-type protein to the KD value with respect to KRAS),Kd ([1]; 1:1 binding model) [nM]
CCO[C@@H]1C[C@H]2C(=O)NC3(CCC3)C(=O)N(C)[C@@H](C3CCCC3)C(=O)N(C)[C@H](C(=O)N(C)C)CC(=O)N(C)[C@@H](CC)C(=O)N[C@@H]([C@@H](C)CC)C(=O)N(C)CC(=O)N(C)[C@H]3CCCCCN(C3=O)[C@@H](Cc3ccc(F)c(F)c3)C(=O)N(C)CC(=O)N[C@@H](CCc3cc(F)c(C(F)(F)F)c(F)c3)C(=O)N2C1 [PP0907],0.16,B (a compound having 3 or more and less than 10 is denoted as B),B (a compound having 3 or more and less than 10 is denoted as B),24.8,–,–,–,–,–,–
CCCOC[C@H]1C(=O)N[C@@H]([C@@H](C)CC)C(=O)N(C)CC(=O)N(C)[C@H]2C/C=C\CCN(C2=O)[C@@H](Cc2ccc(C)cc2)C(=O)N(C)CC(=O)N[C@@H](CCc2cc(F)c(C(F)(F)F)c(F)c2)C(=O)N2C[C@H](OCC)C[C@H]2C(=O)NC2(CC(C)(C)C2)C(=O)N(C)[C@@H](C2CCCC2)C(=O)N(C)[C@H](C(=O)N(CC)CC)CC(=O)N1C [PP1578],–,–,–,12.6,0.2,A (a compound having 10 or more and less than 20 is denoted as A),A (a compound having 10 or more and less than 20 is denoted as A),–,–,–
CCCC[C@H]1C(=O)N[C@@H]([C@@H](C)CC)C(=O)N(C)CC(=O)N(C)[C@H]2C/C=C\CCN(C2=O)[C@@H](Cc2ccc(C(F)(F)F)cc2)C(=O)N(C)CC(=O)N[C@@H](CCc2cc(F)c(C(F)(F)F)c(F)c2)C(=O)N2C[C@H](OCC)C[C@H]2C(=O)NC2(CC(F)(F)C2)C(=O)N(C)[C@@H](C2CCCC2)C(=O)N(C)[C@H](C(=O)N(C)C)CC(=O)N1C [PP1740],–,–,–,3.6,0.053,A (a compound having 10 or more and less than 20 is denoted as A),A (a compound having 10 or more and less than 20 is denoted as A),–,–,–
"CCCN1C(=O)CN(C)C(=O)[C@@H]2CCN2C(=O)[C@H]([C@@H](C)CC)NC(=O)[C@H](CC(C)C)N(C)C(=O)C[C@@H](C(=O)N(C)C)N(C)C(=O)[C@H](C2CCCC2)N(C)C(=O)C2(CCCC2)NC(=O)[C@@H]2CC(F)(F)CN2C(=O)[C@H](CCc2ccc(C(F)(F)F)c(Cl)c2)NC(=O)CN(C)C(=O)[C@@H]1Cc1ccc(C(F)(F)F)cc1 [PP0431] ([NMeL]I[Aze][Sar][NPrPhe(4-CF3)][Sar][hPhe(3-Cl-4-CF3)][Pro(4,4-F2)][Ac5c][NMeGly(cPent)][NMeD]-NMe2; lactam N-11)",–,–,–,9.9,0.35,–,–,B (a compound having 3 or more and less than 10 is denoted as B),C (A compound having a KD ratio of 0.1 or more and less than 3 is denoted as C),–
CCCC[C@H]1C(=O)N[C@@H]([C@@H](C)CC)C(=O)N(C)CC(=O)N(C)[C@H]2C/C=C\CCN(C2=O)[C@@H](Cc2ccc(C(F)(F)F)cc2)C(=O)N(C)CC(=O)N[C@@H](CCc2ccc(C(F)(F)F)c(Cl)c2)C(=O)N2C[C@H](OCC)C[C@H]2C(=O)NC2(CCC2)C(=O)N(C)[C@@H](C2CCCC2)C(=O)N(C)[C@H](C(=O)N(C)CC)CC(=O)N1C [PP2841],–,A (a compound having 10 or more and less than 20 is denoted as A),A (a compound having 10 or more and less than 20 is denoted as A),8.3,–,–,–,–,–,0.086
CC[C@H](C)[C@@H]1NC(=O)[C@H](CC(C)C)N(C)C(=O)C[C@@H](C(=O)N2CCOCC2)N(C)C(=O)[C@H](C2CCCC2)N(C)C(=O)C2(CC2)NC(=O)[C@@H]2CCCN2C(=O)[C@H](CCc2ccc(C(F)(F)F)c(Cl)c2)NC(=O)CN(C)C(=O)[C@H](Cc2ccc(C(F)(F)F)cc2)N(CC)C(=O)CN(C)C(=O)CN(C)C1=O [PP0234] ([NMeL]I[Sar][Sar][NEtPhe(4-CF3)][Sar][hPhe(3-Cl-4-CF3)]P[Ac3c][NMeGly(cPent)][NMeD]-Morpholide; lactam N-11),–,B (a compound having 3 or more and less than 10 is denoted as B),C (A compound having a KD ratio of 0.1 or more and less than 3 is denoted as C),49.9,–,–,–,–,–,0.49
CCO[C@@H]1C[C@H]2C(=O)NC3(CCC3)C(=O)N(C)[C@@H](C(CC)CC)C(=O)N(C)[C@H](C(=O)N3CCOCC3)CC(=O)N(C)[C@@H](CC3CC3)C(=O)N[C@@H]([C@@H](C)CC)C(=O)N(C)CC(=O)N(C)[C@H]3C/C=C\CCN(C3=O)[C@@H](Cc3ccc(F)cc3)C(=O)N(C)CC(=O)N[C@@H](CCc3cc(F)c(C(F)(F)F)c(F)c3)C(=O)N2C1 [PP1527],–,–,–,143,0.95,A (a compound having 10 or more and less than 20 is denoted as A),A (a compound having 10 or more and less than 20 is denoted as A),–,–,–
CC[C@H](C)[C@@H]1NC(=O)[C@H](CC(C)C)N(C)C(=O)C[C@@H](C(=O)N2CCOCC2)N(C)C(=O)[C@H](C2CCCC2)N(C)C(=O)C2(CCC2)NC(=O)[C@@H]2[C@H](O)CCN2C(=O)[C@H](CCc2cc(F)c(C(F)(F)F)c(F)c2)NC(=O)CN(C)C(=O)[C@H](Cc2ccc(C(F)(F)F)cc2)N2CCCCC[C@@H](C2=O)N(C)C(=O)CN(C)C1=O [PP0873],0.86,A (a compound having 10 or more and less than 20 is denoted as A),B (a compound having 3 or more and less than 10 is denoted as B),896,–,–,–,–,–,–
CC[C@H](C)[C@@H]1NC(=O)[C@H](CC(C)C)N(C)C(=O)C[C@@H](C(=O)N2CCOCC2)N(C)C(=O)[C@H](C2CCCC2)N(C)C(=O)C2(CCCC2)NC(=O)[C@@H]2CCCN2C(=O)[C@H](CCc2ccc(C(F)(F)F)c(Cl)c2)NC(=O)CN(C)C(=O)[C@H](Cc2ccc(C(F)(F)F)cc2)N(CCC(C)(C)C)C(=O)CN(C)C(=O)CN(C)C1=O [PP0127] ([NMeL]I[Sar][Sar][X6][Sar][hPhe(3-Cl-4-CF3)]P[Ac5c][NMeGly(cPent)][NMeD]-Morpholide; lactam N-11),–,C (A compound having a KD ratio of 0.1 or more and less than 3 is denoted as C),C (A compound having a KD ratio of 0.1 or more and less than 3 is denoted as C),25.3,–,–,–,–,–,0.92
CCO[C@@H]1C[C@H]2C(=O)NC3(CCC3)C(=O)N(C)[C@@H](C3CCCC3)C(=O)N(C)[C@H](C(=O)N(C)C)CC(=O)N(C)[C@@H](CC(C)C)C(=O)N[C@@H]([C@@H](C)CC)C(=O)N(C)CC(=O)N(C)[C@H]3CCCCCN(C3=O)[C@@H](Cc3ccc(F)cc3)C(=O)N(C)CC(=O)N[C@@H](CCc3ccc(C(F)(F)F)c(Cl)c3)C(=O)N2C1 [PP0972],0.15,B (a compound having 3 or more and less than 10 is denoted as B),B (a compound having 3 or more and less than 10 is denoted as B),15.8,–,–,–,–,–,–
CCO[C@@H]1C[C@H]2C(=O)NC3(CC(C)(C)C3)C(=O)N(C)[C@@H](C3CCCC3)C(=O)N(C)[C@H](C(=O)N(C)CC)CC(=O)N(C)[C@H]3CC/C=C/c4ccc(cc4)C[C@@H](C(=O)N(C)CC(=O)N[C@@H](CCc4ccc(Cl)c(Cl)c4)C(=O)N2C1)N1CC/C=C\C[C@@H](C1=O)N(C)C(=O)CN(C1CC1)C(=O)[C@H]([C@@H](C)CC)NC3=O [PP2598],–,A (a compound having 10 or more and less than 20 is denoted as A),A (a compound having 10 or more and less than 20 is denoted as A),23,–,–,–,–,–,1.9
